The term IC50 denotes the concentration needed to halve the response being measured.

We go through 5 molecules from paper PMC4575187 (PLoS ONE, 2015).

For data set [1], the system named is influenza A/Aichi/2/68 (H3N2). Kind of data set: microbe, parasite or virus in culture. The settings on record: H3N2, MDCK, read-out: H3N2 IC50.
For data set [2], the system named is influenza A/Aichi/2/68 (H3N2). The note with it: /Aichi/2/68, 48 h.
Data set [3] relates to MDCK cells. The note with it: 4 h.
Data set [4] deals with H5N1 pseudovirus. In kind it is cell-based, influenza A virus.
The subject of data set [5] is MDCK cells. The settings on record: previous work; cited from earlier work.
The subject of data set [6] is H5N1 pseudovirus (HA and NA of A/Thailand/Kan353/2004).
Data set [7] relates to H5 antigen. Description: Hemagglutination inhibition (HI) assay. The note with it: HA-FP-1 at 50 μg/mL, chicken erythrocytes 0.5% v/v, 1 h at room temperature.

Converted amounts (≈) assume the structure as drawn. Ends that are not written are not given here.

In the case of `NC(=O)c1ncn([C@@H]2O[C@H](CO)[C@@H](O)[C@H]2O)n1` [Ribavirin], in data set [1], the IC50 was 0.63 µg/mL (≈ 2.58 µM).
As for GLFGAIAGFIKGGWPGLVKG-NH2 [HA-FP-3], the “H3N2 IC50” value in data set [2] turned out to be 34.91 ± 4.21 µg/mL.
In data set [3], GLFGAIAGFIKKGWPGLVKG-NH2 [HA-FP-3-1] had a CC50 with serum of 209.35 ± 0.21 µg/mL and a CC50 without serum of 174.53 ± 1.90 µg/mL. For the same molecule, the “H3N2 IC50” value in data set [2] is 27.57 ± 0.43 µg/mL.
As to GLFGAIAGFIKNGWKGMIKG-NH2 [HA-FP-1], the “antiviral activity of HA-FP-1 in presence of HA-FP-O” value in data set [4] was “completely abolished”. In data set [3], the CC50 with serum is 143.65 ± 0.63 µg/mL and the CC50 without serum turned out to be 111.70 ± 0.40 µg/mL. For the same molecule, in data set [5], the “CC50 against MDCK” value was 144.4 µg/mL. The “IC50, infection of H5N1 influenza A pseudovirus on MDCK cells” value in data set [6] (pseudovirus (HA and NA of A/Thailand/Kan353/2004, 48 h)) amounted to 7.05 µg/mL. Besides, the “H3N2 IC50” value in data set [2] was determined as 5.90 ± 0.62 µg/mL. Besides, the “inhibition of agglutination of red blood cells” value in data set [7] is on record as “unable to inhibit”.
For the molecule “HA-FP-O: indigenous negatively charged fusion peptide of H3 hemagglutinin HA2, 20 residues (GLFGAIAGFIENGWEGMIDG)”, the “inhibition of H5N1 pseudovirus infection (in words)” value in data set [6] is “a lower or no inhibition”.
